Experimental data taken from PMC12064818, “A general assay platform to study protein pharmacology using ligand-dependent structural dynamics” (Nature Communications, 2025).

Biological target: T1, FLuc-C-HiBiT (Photinus pyralis, UniProt P08659)
T1 construct: firefly luciferase with C-terminal HiBiT tag, E. coli expressed
Experiment: biochemical
Conditions: enzyme activity, 10 uM ATP; read-out: IC50 or SDR50 (mM) / FLuc E

T1 sequence (P08659 whole entry, looked up): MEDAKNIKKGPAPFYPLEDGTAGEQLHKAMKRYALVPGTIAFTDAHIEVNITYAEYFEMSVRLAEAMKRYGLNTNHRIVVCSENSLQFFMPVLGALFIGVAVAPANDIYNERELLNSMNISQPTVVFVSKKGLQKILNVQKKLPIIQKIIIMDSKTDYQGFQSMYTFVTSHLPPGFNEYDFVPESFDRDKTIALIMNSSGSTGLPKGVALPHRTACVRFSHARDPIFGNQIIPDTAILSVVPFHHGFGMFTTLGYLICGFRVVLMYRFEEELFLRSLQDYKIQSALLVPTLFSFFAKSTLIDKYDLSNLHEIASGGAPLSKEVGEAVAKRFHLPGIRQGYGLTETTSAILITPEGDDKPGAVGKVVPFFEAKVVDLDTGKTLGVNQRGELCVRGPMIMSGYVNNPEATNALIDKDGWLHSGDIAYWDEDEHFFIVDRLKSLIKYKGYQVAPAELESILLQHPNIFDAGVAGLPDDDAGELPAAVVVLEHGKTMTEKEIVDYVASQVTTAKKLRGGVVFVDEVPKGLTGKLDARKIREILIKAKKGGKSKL

SMILES	IC50 [mM]
O=C(Nc1ccccc1)c1nc2c(o1)CCN(Cc1ccc(F)cc1)CC2 [NCGC00413289-01]	0.018
COc1ccccc1CN1CCc2nc(C(=O)Nc3ccccc3)oc2CC1 [NCGC00413298-01]	0.0161
Cn1cc(CN2CCc3nc(C(=O)Nc4ccccc4)oc3CC2)cn1 [NCGC00413305-01]	0.018
COc1cccc(CN2CCc3nc(C(=O)Nc4nc(C)cs4)oc3CC2)c1 [NCGC00413306-01]	0.018
CCCN1CCc2nc(C(=O)Nc3ccccc3)oc2CC1 [NCGC00413331-01]	0.018
O=C(Nc1ccccc1)c1nc2c(o1)CCN(CC1CC1)CC2 [NCGC00413351-01]	0.0161
Cn1ccnc1CN1CCc2nc(C(=O)Nc3ccccc3)oc2CC1 [NCGC00413360-01]	0.0202
Cc1noc(C)c1CN1CCc2nc(C(=O)Nc3ccccc3)oc2CC1 [NCGC00413386-01]	> 0.03
O=C(Nc1ccccc1)c1nc2c(o1)CCN(Cc1cccc(Cl)c1)CC2 [NCGC00413390-01]	0.0101
O=C(Nc1ccccc1)c1nc2c(o1)CCN(Cc1ccccn1)CC2 [NCGC00413398-01]	0.018
O=C(Nc1ccccc1)c1nc2c(o1)CCN(Cc1ccc(O)cc1)CC2 [NCGC00413411-01]	0.00508
O=C(Nc1cccnc1)c1nc2c(o1)CCN(Cc1ccc(O)cc1)CC2 [NCGC00413415-01]	0.018
O=C(Nc1cccnc1)c1nc2c(o1)CCN(Cc1cccc(O)c1)CC2 [NCGC00413425-01]	0.0202
COc1ccc(-c2ncc3c(n2)OCCN(C)C3=O)cc1F [NCGC00413447-01]	0.018
O=C1c2cnc(-c3cccc(CO)c3)nc2OCCN1c1cccc(C(F)(F)F)c1 [NCGC00413455-01]	0.0202
COCCN1CCOc2nc(-c3cccc(N(C)C)c3)ncc2C1=O [NCGC00413458-01]	0.018
O=C1c2cnc(-c3ccc(Cl)cc3)nc2OCCN1CC1CC1 [NCGC00413489-01]	0.00404
O=C1c2cnc(-c3cccc(C(F)(F)F)c3)nc2OCCN1CC1CC1 [NCGC00413514-01]	0.00904
O=C1c2cnc(-c3ccccc3)nc2OCCN1CC1CC1 [NCGC00413518-01]	0.0161
COc1cccc(-c2ncc3c(n2)OCCN(c2ccccc2)C3=O)c1 [NCGC00413522-01]	0.0018
COc1ccc(-c2ncc3c(n2)OCCN(c2ccccc2)C3=O)cc1F [NCGC00413523-01]	0.00321
CN1CCOc2nc(-c3cccc(OC(F)(F)F)c3)ncc2C1=O [NCGC00413529-01]	0.018

SMILES	IC50 [mM]
Cc1ccc(-c2ncc3c(n2)OCCN(Cc2ccc(F)cc2F)C3=O)cc1 [NCGC00413538-01]	> 0.03
COc1ccc(CN2CCOc3nc(-c4cc5ccccc5o4)ncc3C2=O)cc1 [NCGC00413542-01]	0.00805
COc1ccc(-c2ncc3c(n2)OCCN(CC2CC2)C3=O)cc1 [NCGC00413552-01]	0.00805
O=C1c2cnc(-c3cccc(CO)c3)nc2OCCN1c1ccccc1 [NCGC00413559-01]	0.0114
CN1CCOc2nc(-c3ccc(Oc4ccccc4)cc3)ncc2C1=O [NCGC00413560-01]	0.0161
Cc1ccc(-c2ncc3c(n2)OCCN(C)C3=O)c(C)c1 [NCGC00413561-01]	0.0226
O=C1c2cnc(-c3ccc(CO)cc3)nc2OCCN1CC1CC1 [NCGC00413563-01]	0.0114
COCCN1CCOc2nc(-c3cc(F)cc(OC)c3)ncc2C1=O [NCGC00413569-01]	0.0114
O=C1c2cnc(-c3ccc(F)cc3)nc2OCCN1CC1CC1 [NCGC00413585-01]	0.0143
O=C1c2cnc(-c3cc4ccccc4o3)nc2OCCN1Cc1ccccc1 [NCGC00413600-01]	0.00161
O=C1c2cnc(-c3ccsc3)nc2OCCN1c1ccccc1 [NCGC00413608-01]	0.018
CN(C)c1cccc(-c2ncc3c(n2)OCCN(c2ccccc2)C3=O)c1 [NCGC00413615-01]	0.0128
COc1ccc(-c2ncc3c(n2)OCCN(Cc2ccccc2)C3=O)cc1 [NCGC00413617-01]	0.018
COc1cccc(-c2ncc3c(n2)OCCN(Cc2ccccc2)C3=O)c1 [NCGC00413619-01]	0.0128
O=C1c2cnc(-c3cccc(F)c3)nc2OCCN1c1ccccc1 [NCGC00413626-01]	0.0143
O=C1c2cnc(-c3ccccc3)nc2OCCN1Cc1ccccc1 [NCGC00413632-01]	> 0.03
COc1cccc(-c2ncc3c(n2)OCCN(Cc2ccc(F)cc2F)C3=O)c1 [NCGC00413648-01]	0.0161
O=C1c2cnc(-c3ccc(F)cc3F)nc2OCCN1CC1CC1 [NCGC00413656-01]	0.018
CCOc1nccn2c(-c3ccc(CNC(=O)CNC(C)=O)cc3)cnc12 [NCGC00413921-01]	0.018
OC1CN(Cc2ccc(-c3cnc4c(OCc5ccccc5)nccn34)cc2)C1 [NCGC00414051-01]	0.0202
O=c1c2nc(N3CCC(c4ccccc4)CC3)ccc2ncn1C1CC1 [NCGC00414736-01]	0.0036
CN(c1ccccc1)c1ccc2ncn(C3CC3)c(=O)c2n1 [NCGC00414800-01]	0.00568

SMILES	IC50 [mM]
COc1ccc(CN2CC(COc3ccccc3)C3(C2)CN(c2ccccc2)C3)cc1O (stereo not shown) [NCGC00415956-01]	> 0.03
CCOCC1(C)COc2ccc(C(=O)Nc3ccccc3)cc2N1 (stereo not shown) [NCGC00416079-01]	0.018
CCOCC1(C)COc2ccc(C(=O)Nc3ccc(Cl)cc3)cc2N1 (stereo not shown) [NCGC00416138-01]	0.018
COc1cc2c(cc1-c1ccc(CO)cc1)NC(=O)C21CCN(C)CC1 [NCGC00416803-01]	0.0202
COc1ccc(Nc2cc3c(nc2OC)nc(CCc2ccccc2)n3C)cn1 [NCGC00417814-01]	0.0202
Cc1oc(C(O)c2ccccc2F)nc1C(=O)Nc1ccc(N2CCOCC2)cc1 (stereo not shown) [NCGC00417991-01]	0.0161
CNC(=O)CCn1ncc2cc(OCc3ccccc3-c3cccc(NC(C)=O)c3)ccc21 [NCGC00418019-01]	0.00313
C[S+](=O)([O-])CCn1ncc2cc(OCc3cccc(-c4cccnc4)c3)ccc21 [NCGC00418034-01]	0.0161
C[S+](=O)([O-])CCn1ncc2cc(OCc3cccc(-c4cccc(O)c4)c3)ccc21 [NCGC00418035-01]	0.0161
C[S+](=O)([O-])CCn1ncc2cc(OCc3cccc(-c4ccc(F)cc4)c3)ccc21 [NCGC00418040-01]	0.0161
Cc1cc(-c2cccc(COc3ccc4c(cnn4CC[S+](C)(=O)[O-])c3)c2)ccn1 [NCGC00418048-01]	0.018
Cn1cc(-c2cccc(COc3ccc4c(cnn4CC[S+](C)(=O)[O-])c3)c2)cn1 [NCGC00418049-01]	0.018
CC(C)Oc1cccc(-c2cccc(COc3ccc4c(cnn4CC[S+](C)(=O)[O-])c3)c2)c1 [NCGC00418050-01]	0.0111
C[S+](=O)([O-])CCn1ncc2cc(OCc3cccc(-c4ccccc4O)c3)ccc21 [NCGC00418051-01]	0.0143
COc1cccc(F)c1-c1ccc(COc2ccc3c(cnn3CCC(=O)O)c2)cc1 [NCGC00418057-01]	0.0202
COc1cc(F)ccc1-c1ccc(COc2ccc3c(cnn3CCC(=O)O)c2)cc1 [NCGC00418071-01]	0.018
COc1ccc(F)cc1-c1ccc(COc2ccc3c(cnn3CCC(=O)O)c2)cc1 [NCGC00418072-01]	0.018
C[S+](=O)([O-])CCn1ncc2cc(OCc3cccc(-c4ccccc4)c3)ccc21 [NCGC00418095-01]	0.0064
Cc1ccc(F)cc1-c1ccc(COc2ccc3c(cnn3CCC(=O)O)c2)cc1 [NCGC00418121-01]	0.018
O=C(O)CCn1ncc2cc(OCc3ccc(-c4cccc(CO)c4)cc3)ccc21 [NCGC00418123-01]	0.0161
Cc1ccccc1-c1ccc(COc2ccc3c(cnn3CCC(=O)O)c2)cc1 [NCGC00418125-01]	0.0161
CC(C)c1cnc(N2CCC(COc3ccc4c(cnn4CCC(=O)O)c3)CC2)nc1 [NCGC00418130-01]	0.0202

SMILES	IC50 [mM]
CC(=O)Nc1cccc(-c2ccc(COc3ccc4c(cnn4CCC(=O)O)c3)cc2)c1 [NCGC00418146-01]	0.00101
COc1cc(Cl)ccc1-c1ccc(COc2ccc3c(cnn3CCC(=O)O)c2)cc1 [NCGC00418159-01]	0.0202
Cc1ccc(-c2cccc(COc3cnc4c(ccn4CC(=O)O)c3)c2)cc1 [NCGC00418171-01]	0.00805
Cc1ccccc1-c1cccc(COc2cnc3c(ccn3CC(=O)O)c2)c1 [NCGC00418175-01]	0.018
COc1cccc(-c2cccc(COc3cnc4c(ccn4CC(=O)O)c3)c2)c1F [NCGC00418177-01]	0.0128
COc1cccc(-c2cccc(COc3cnc4c(ccn4CC(=O)O)c3)c2)c1 [NCGC00418182-01]	0.0161
CC(C)Oc1cccc(-c2cccc(COc3cnc4c(ccn4CC(=O)O)c3)c2)c1 [NCGC00418183-01]	0.018
CC(=O)Nc1cccc(-c2cccc(CCOc3cnc4c(ccn4CC(=O)O)c3)c2)c1 [NCGC00418203-01]	0.0161
COc1ccc(-c2cccc(COc3cnc4c(ccn4CC(=O)O)c3)c2)c(C)c1 [NCGC00418229-01]	> 0.03
Cc1ccc(-c2cccc(COc3cnc4c(ccn4CC(=O)O)c3)c2)cc1C [NCGC00418247-01]	0.018
Cc1ccc(-c2cccc(COc3cnc4c(ccn4CC(=O)O)c3)c2)c(C)c1 [NCGC00418282-01]	> 0.03
O=C(Nc1nc2ccccc2s1)c1ccc2c(c1)OCCN(CCC(F)(F)F)C2 [NCGC00418456-01]	0.0202
CN1Cc2ccc(C(=O)NCCOc3ccccc3)cc2OCC1=O [NCGC00418504-01]	0.0202
Cc1cnc(NC(=O)c2ccc3c(c2)OCC(=O)N(C)C3)s1 [NCGC00418511-01]	0.0143
Cc1csc(NC(=O)c2ccc3c(c2)OCC(=O)N(C)C3)n1 [NCGC00418513-01]	0.018
COCCN1CCC2(C1)CN(C)c1ccc(C(=O)Nc3ccc(F)cc3)cc12 (stereo not shown) [NCGC00419287-01]	0.00718
COCCN1CCC2(C1)CN(C)c1ccc(C(=O)Nc3ccccc3)cc12 (stereo not shown) [NCGC00419345-01]	0.00114
COCCN1CCC2(C1)CN(C)c1ccc(C(=O)Nc3ccn(C)n3)cc12 (stereo not shown) [NCGC00419376-01]	0.0101
CC(C)(Oc1nn(CC2CC2)c2ccc(CN3CCCC3)cc12)C(=O)NC1CCOCC1 [NCGC00419513-01]	> 0.03
